Structures are written as SMILES. Marks after values point to notes of the source that are not given here.

Data set [1] concerns Salmonella enterica ATCC 8759. The data set is described as follows: Minimal Inhibitory Concentration test (OD) with bactericidal/static check. The format is cell-based. Conditions: 0 CFU/ml needed for bactericidal. The procedure:
(§1) Sterile, 12×75 mm plastic test tubes were used to perform the test. 1 mL of the test compositions were placed in the appropriate labeled tubes. 1 mL of each adjusted bacterial inoculum was added to each appropriate labeled tube in the dilution series and mixed. The tubes were closed with loose caps. The tubes were then incubated at 37° C. for 24 hours with the exception of the Campylobacter tubes, which were incubated microaerophilically at 42° C. for 48 hours. At the end of the incubation phases the tubes were examined for turbidity. All optically clear tubes were plated to agar plates to determine if the test article was bactericidal or bacteriostatic. A product was considered to be “bactericidal” if less than 3 CFU were detected (Clear tubes with a few CFU), and “bacteriostatic” if greater the 3 CFU were detected (Clear tubes and growth detected).
(§2) The tubes were examined for turbidity, indicating growth of the organism. […] The lowest concentration of the agent that inhibits growth of the organism, as detected by lack of visual turbidity (matching the negative control) was designated the minimum inhibitory concentration (MIC).
(§3) Additional experiments were performed to determine bactericidal and bacteriostatic effects of preparation made from wine lees from different varietals, effects of aging of preparations on bactericidal and bacteriostatic effectiveness, and to compare effectiveness to conventional antibiotic treatment. Methods were as described above for testing bacteriostatic and bactericidal effects. Preparations were tested against Salmonella enterica (ATCC 8759) and E. coli 0157:H7 (ATCC 700728).
(§4) The following preparations were tested: a lees preparation from Chardonnay grapes that had not been enzymatically treated and had been prepared approximately 2 months before testing (CH16), a lees preparation from Pinot Noir grapes that had not been enzymatically treated and had been prepared approximately 14 months before testing (PNC15), a lees preparation from Pinot Noir grapes that had not been enzymatically treated and had been prepared approximately 2 months before testing (PNC16), a lees preparation from Cabernet Franc grapes that had been enzymatically treated and had been prepared approximately 2 months before testing (CFE16), CELMANAX™ (SCP) (hydrolyzed yeast), and salinomycin, 0.005% solution (antibiotic).

Data set [2] relates to Escherichia coli 0157:H7 ATCC 700728. Described as above. Conditions: for Bactericidal or Static check of optically clear MIC tubes, Escherichia coli 0157:H7 ATCC 700728: 0 CFU/ml needed for bactericidal. The format is cell-based. On the procedure:
as §1, §2, §3, §4

A short description of data set [3]: In vivo calf study: rectal temperature and fecal consistency score. Details: species or system Holstein calves. The procedure: (§5) An in vivo study was performed to compare effects of lees-based preparations as disclosed herein to conventional commercially available product yeast fermentation product and Decoquinate on performance and health of neonatal Holstein calves. […] PNC16 was compared with CELMANAX™ (SCP) (hydrolyzed yeast) and an antibiotic, DECCOX®-M manufactured by Zoetis Inc., Decoquinate.
(§6) The study was conducted at Spruce Haven Farms, Union Springs, N.Y., a commercial dairy consisting of 1,800 mature cows. There were thirty calf hutches available to conduct the trial that were aligned in one row. The study consisted of thirty female Holstein calves. As calves were born they were successively placed on one of four treatments until 28 calves were assigned, then the remaining 2 calves were assigned to treatment 2 and 3 respectively.
(§7) Fecal samples (˜10-20 g) were obtain via digital stimulation from each calf on day 7, 14 and 21 of life. Samples were sent to the Cornell Diagnostic Laboratory for zinc sulfate floatation to determine type and degree of fecal shedding. Body temperatures were take just prior to fecal collections on day 7, 14 and 21 of life. Fecal consistency scores: were recorded for each calf daily using the following scale: 1=soft, solid consistency, no fluid, 2=semi-solid, mostly solid, 3=runny: semi solid, mostly fluid, 4=watery, all fluid 5=watery with blood.

Data set [4] can be described thus: In vivo calf study: body weight gain. Details: species or system Holstein calves. The procedure:
An in vivo study was performed to compare effects of lees-based preparations as disclosed herein to conventional commercially available product yeast fermentation product and Decoquinate on performance and health of neonatal Holstein calves. Lees was prepared as described above (a lees preparation from Pinot Noir grapes that had not been enzymatically treated and had been prepared approximately 6 months before testing (PNC16)). PNC16 was compared with […]) (hydrolyzed yeast) and an antibiotic, DECCOX®-M manufactured by Zoetis Inc., Decoquinate. The study was conducted at Spruce Haven Farms, Union Springs, N.Y., a commercial dairy consisting of 1,800 mature cows. There were thirty calf hutches available to conduct the trial that were aligned in one row. The study consisted of thirty female Holstein calves. As calves were born they were successively placed on one of four treatments until 28 calves were assigned, then the remaining 2 calves were assigned to treatment 2 and 3 respectively. […] Calves were housed in fiberglass hutches (4'×8') with an outside run (4'×6') with straw bedding inside the hutch. Within 2 hr. of birth, calves were offered 4 lb. of colostrum. Thereafter, pasteurized whole milk was offered twice daily (08:00 and 16:00 h) and water and dry calf starter was available at all times in removable buckets. During the morning feeding the liquid (CEL or PNC16) or dry (22.7 mg) test articles were dissolved in the milk. Calves body weights were recorded when moved into the hutches and again at 21 d of life.

In the next data set the test system is cryptosporidiosis. The conditions noted are these: Moore (2003); cited from earlier work.
A further data set deals with Cryptosporidium oocytes. The data set is described as follows: In vivo calf study: fecal shedding of Cryptosporidium oocytes. Details: species or system Cryptosporidium (in Holstein calves). On the procedure: as §5, §6, §7
Data set [5] can be described thus: In vivo calf study: hematology and haptoglobin. Details: species or system Holstein calves. Conditions: 10 day old calves. On the procedure: An in vivo study was performed to compare effects of lees-based preparations as disclosed herein to conventional commercially available product yeast fermentation product and Decoquinate on performance and health of neonatal Holstein calves. Lees was prepared as described above (a lees preparation from Pinot Noir grapes that had not been enzymatically treated and had been prepared approximately 6 months before testing (PNC16)). PNC16 was compared with […]) (hydrolyzed yeast) and an antibiotic, DECCOX®-M manufactured by Zoetis Inc., Decoquinate. The study was conducted at Spruce Haven Farms, Union Springs, N.Y., a commercial dairy consisting of 1,800 mature cows. There were thirty calf hutches available to conduct the trial that were aligned in one row. The study consisted of thirty female Holstein calves. As calves were born they were successively placed on one of four treatments until 28 calves were assigned, then the remaining 2 calves were assigned to treatment 2 and 3 respectively. […] Blood samples were collected via jugular vein-puncture before the pm milk feeding on day 10 of life. Samples were collected in heparinized vacutainers. Whole blood was analyzed for hematology: red blood count, hematocrit, hemoglobin, mean cell volume, mean cell hemoglobin, mean cell hemoglobin concentration, red cell distribution width, reticulocyte, white blood cell: neutrophil, lymphocyte, monocyte, eosinophil, basophil, platelet, mean platelet volume, platelet, distribution width and procalcitonin. Plasma was obtained by centrifugation at 1,500×g for 15 min. Plasma samples were frozen (-40° C.) and shipped to the Michigan State University (DCPAH) laboratory for haptoglobin analysis.

The subject of another data set is Eimeria species. The data set is described as follows: In vivo calf study: fecal shedding of Eimeria species. Details: species or system Eimeria (in Holstein calves). The conditions noted are these: day 21 of age (FIG. 4); Control 71.5%. On the procedure: as §5, §6, §7
Where [6] appears, read: 20 Mg/ml (ABX: salinomycin 0.005% solution).
[7] abbreviates: 40 Mg/ml (ABX: salinomycin 0.005% solution).

Consider `CC[C@@H](C(=O)[C@@H](C)[C@@H](O)[C@H](C)[C@@H]1O[C@@H]([C@@H](CC)C(=O)O)CC[C@@H]1C)[C@H]1O[C@]2(C=C[C@@H](O)[C@]3(CC[C@@](C)([C@H]4CC[C@](O)(CC)[C@H](C)O4)O3)O2)[C@H](C)C[C@@H]1C` [ABX, salinomycin], for which the “Bactericidal or Static check of optically clear MIC tubes, Salmonella enterica ATCC 8759” value in data set [1] (setting [6]) and in data set [1] (setting [7]) was 50,000 CFU/ml throughout. Moreover, the “Turbidity Reading (OD), Escherichia coli 0157:H7 ATCC 700728” value in data set [2] is “.075^c OD”. Besides, the “Bactericidal or Static check of optically clear MIC tubes, Escherichia coli 0157:H7 ATCC 700728” value in data set [2] (setting [6]) and in data set [2] (setting [7]) was 950 CFU/ml each time.
For `CCCCCCCCCCOc1cc2c(O)c(C(=O)OCC)cnc2cc1OCC` [DECCOX ®, Decoquinate], the “Fecal consistency score (FCS)” value in data set [3] (between day 12 and 17 d of life, scale 1-5, Control 2.3) is reported as 2.4. For the same compound, the Rectal temperature result in data set [3] (day 14, comparison in words) was “higher (p<005) than PNC16”. In data set [4] (baseline at birth, Control 40.4), this compound gave a Birth wt of 40.2 kg. The compound also registered a Body wt gain in data set [4] (birth through day 21, Control 6.8) of 7.3 kg. Also, the ADG entry in data set [4] (birth through day 21, Control .32) was “.35 kg/day”. Also, the “Day 21 wt” value in data set [4] (day 21 of life, Control 47.1) is listed as 47.6^b kg. For the same compound, the “clinical benefit as preventative treatment for cryptosporidiosis” value with cryptosporidiosis is “no clinical benefit”. In addition, the “Cryptosporidium Oocytes/g of feces” value is reported as 0 Oocytes/g of feces with Cryptosporidium oocytes (Day 1, Control 0); 2^b Oocytes/g of feces with Cryptosporidium oocytes (Day 7, Control 85638); 209473^a Oocytes/g of feces in the data set on Cryptosporidium oocytes (Day 14, Control 14153); 11^b Oocytes/g of feces in the data set with Cryptosporidium oocytes (Day 21, Control 368). Besides, the “% of calves shedding Cryptosporidium oocytes” value is 0.0% with Cryptosporidium oocytes (Day 1, Control 0.0); 28.6% in the data set with Cryptosporidium oocytes (Day 7, Control 71.4); 100.0% in the data set with Cryptosporidium oocytes (Day 14, Control 85.0); 28.6% in the data set with Cryptosporidium oocytes (Day 21, Control 28.6). In addition, the “Basophil (Baso)” value in data set [5] (Control 0.01) was 0.00 K/ul. The “Monocyte (Mono)” value in data set [5] (Control 0.02) came to 0.05 K/ul. Further, the “Eosinophil (Eosin)” value in data set [5] (Control 0.03) turned out to be 0.08 K/ul. In data set [5] (Control 3.7), the “Neutrophil (NEUT)” value stood at 5.1 K/ul. Besides, in data set [5] (Control 4.2), the “Lymphocyte (LYMPH)” value is on record as 2.4 K/ul. Also, the “Mean Platelet Volume (MPV)” value in data set [5] (Control 5.5) came out at 5.6 fL. Also, in data set [5] (Control 6.34), the “Platelet Distribution Width (PDW)” value is listed as 7.72^a fL. In data set [5] (Control 7.13), the “Reticulocyte (Ret)” value is recorded as 1.49^b K/ul. For the same compound, the “Red Blood Count (RBC)” value in data set [5] (Control 7.4) is recorded as 7.1 M/uL. In addition, the “White Blood Cell (WBC)” value in data set [5] (Control 7.96) is 7.67^b K/ul. The “Hemoglobin (HBG)” value in data set [5] (Control 9.4) came to 8.9 g/dL. For the same compound, the “Mean Cell Hemoglobin (MCH)” value in data set [5] (Control 12.6) worked out at 12.4 pg. Further, in data set [5] (Control 29.8), the “Hematocrit (HCT)” value is listed as 28.5%. Further, the “Red Cell Distribution Width (RDW)” value in data set [5] (Control 31.4) is given as 30.7%. In addition, the “Mean Cell Hemoglobin Concentration (MCHC)” value in data set [5] (Control 31.5) is reported as 31.4 g/dL. In addition, the “Mean Cell Volume (MCV)” value in data set [5] (Control 40.0) was 39.8 fL. Further, the “Platelet (Plt)” value in data set [5] (Control 654.7) was 579.8^b K/ul. Besides, the “Neutrophil/Lymphocyte Ratio (NLR)” value in data set [5] (Control .87) was 2.11^a. In addition, the “Percentages Baso” value in data set [5] (percent of white cells, Control 0.19) is reported as 0.00%. The “Percentages Mono” value in data set [5] (percent of white cells, Control 0.21) turned out to be 0.63%. Moreover, in data set [5] (percent of white cells, Control 0.34), the “Percentages Eosin” value worked out at 0.98%. The “Percentages Neutrophil” value in data set [5] (percent of white cells, Control 48.38) is on record as 66.63^a %. For the same compound, the “Percentages Lymphocyte” value in data set [5] (percent of white cells, Control 50.87) is 31.75^b %. For the same compound, the “Haptoglobin (Hp)” value in data set [5] (plasma, Control 24.13) amounted to 64.5 µg/mL. The “Percent of calves shedding Eimeria” value with Eimeria species was 0%.

Values taken from patent publication US10828344B2, “Antimicrobial yeast preparation and methods for preparation and use thereof” (priority 2016, dated 2020).
